Literature values in PMC4369286 (Chemistry Central Journal, 2015).
Where two headings read alike, the source gives them in different places. Values belong to the compound of their own block, whether it stands above or below them.

Tests used:
[1] = value of the pure solvent
[2] = design: method as in earlier work; details: direct partition, monomer
[3] = for E (excess molar refractivity descriptor): known values used for comparison
[4] = in several of the organic solvents studied
[5] = known value given as comparison

SMILES: CCOCC [diethyl ether]
Kamlet-Taft solvent hydrogen bond basicity, β [1]: 0.47

Kamlet-Taft solvent hydrogen bond basicity, β [1]: 0.00
SMILES: C1CCCCC1 [cyclohexane]

Log Ps (water-solvent partition coefficient) ([2]; solvent Cyclohexane): −0.25
Log Ps (water-solvent partition coefficient) ([2]; solvent Diethyl ether, wet): 1.92
Log Ps (water-solvent partition coefficient) ([2]; solvent Octan-1-ol, wet): 2.13
Log Ps (water-solvent partition coefficient) ([2]; solvent Tetrachloromethane): 0.40
Log Ps (water-solvent partition coefficient) ([2]; solvent Trichloromethane): 1.20
SMILES: O=C(O)/C=C/c1ccccc1 [trans-cinnamic acid]

SMILES: O=C(O)c1ccccc1 [Benzoic acid, benzoic acid]
S (dipolarity/polarity descriptor) [3, 5]: 0.90
V (McGowan characteristic volume descriptor) [3, 5]: 0.9317
E (excess molar refractivity descriptor) [3]: 0.73
E (excess molar refractivity descriptor) ([3]; listed as benzoic acid): 0.730
Kdimer (dimerization constant) (in benzene): 590
Kdimer (dimerization constant) (in cyclohexane): 11300
Kdimer (dimerization constant) (in tetrachloromethane): 5010

Kamlet-Taft solvent hydrogen bond basicity, β [1]: 0.40
SMILES: CC#N [acetonitrile]

solubility in organic solvents [4]: exceeding 1 molar
SMILES: CC(=O)Oc1ccccc1C(=O)O [aspirin]

SMILES: CC(C)=O [propanone]
Kamlet-Taft solvent hydrogen bond basicity, β [1]: 0.43

SMILES: OCC(F)(F)F [trifluoroethanol]
Kamlet-Taft solvent hydrogen bond basicity, β [1]: 0.00

SMILES: CCOC(=O)c1ccccc1 [ethyl benzoate]
E (excess molar refractivity descriptor) [3]: 0.689

Kamlet-Taft solvent hydrogen bond basicity, β [1]: 0.40
SMILES: CCCOC(C)=O [propyl acetate]

SMILES: O=[N+]([O-])c1ccccc1 [nitrobenzene]
Kamlet-Taft solvent hydrogen bond basicity, β [1]: 0.30

SMILES: ClC(Cl)Cl [trichloromethane]
Kamlet-Taft solvent hydrogen bond basicity, β [1]: 0.10

SMILES: CO [methanol]
Kamlet-Taft solvent hydrogen bond basicity, β [1]: 0.66

E (excess molar refractivity descriptor) [3]: 1.102
SMILES: CCOC(=O)/C=C/c1ccccc1 [ethyl cinnamate]
